In ChEMBL document CHEMBL5346901, “Discovery of potent Plasmodium falciparum protein kinase 6 (PfPK6) inhibitors with a type II inhibitor pharmacophore” (Eur J Med Chem, 2023) one finds Activity and EC50 data, which are given here for 77 molecules.

Calls of active or inactive are those of the source. The calls are words filed in the database; no cut-off is given here.

For one assay, the target named is T1, Cdk-related protein kinase 6 (Plasmodium falciparum) (UniProt O77239).
T1 sequence (whole entry): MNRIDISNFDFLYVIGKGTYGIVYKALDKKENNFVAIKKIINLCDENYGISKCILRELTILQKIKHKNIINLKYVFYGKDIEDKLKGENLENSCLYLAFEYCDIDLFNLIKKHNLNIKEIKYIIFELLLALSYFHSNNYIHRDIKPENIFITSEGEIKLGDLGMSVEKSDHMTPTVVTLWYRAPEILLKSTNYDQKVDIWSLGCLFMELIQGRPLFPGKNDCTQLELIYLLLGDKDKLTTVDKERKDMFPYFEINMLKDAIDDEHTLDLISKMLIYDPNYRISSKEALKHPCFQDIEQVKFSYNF
Briefly: Inhibition of plasmodium falciparum PK6 assessed as remaining activity at 1 uM incubated for 2 hrs by luciferin-based luminescence assay relative to control.
Settings: not given
`O=C(Nc1ccc(F)cc1F)Nc1ccc(Oc2ccnc3[nH]ccc23)cc1F`: the Activity was determined as 14%.
Take `O=C(Nc1ccc(F)cc1F)Nc1ccc(Oc2ccnc3sccc23)cc1F`: the Activity amounted to 43%.
With `COc1cc2nccc(Oc3ccc(NC(N)=O)c(F)c3)c2cc1OC`, the Activity was 28%.
With `O=C(Nc1ccc(F)cc1F)Nc1ccc(Oc2ncnc3sccc23)cc1F`, the Activity stood at 80%.
In the case of `O=C(Nc1ccc(O)cc1F)Nc1ccc(F)cc1F`, the Activity came out at 100%.
Turning to `COCCOc1cc2nccc(Oc3ccc(NC(=O)Nc4ccc(F)cc4F)c(F)c3)c2cc1OCCOC`, the Activity was 2%.
For the molecule `O=C(Nc1ccc(F)cc1F)Nc1ccc(Oc2ccncn2)cc1F`, the Activity was found to be 84%.
The same measure, in the same setting: with `O=C(Nc1ccc(F)cc1F)Nc1ccc(Oc2ncnc3ccccc23)cc1F` the figure was 83%; with `O=C(Nc1ccc(F)cc1F)Nc1ccc(Oc2ccnc(Cl)c2)cc1F`, 92%.
As to `O=C(Nc1ccc(F)cc1F)Nc1ccc(Oc2ccncc2)cc1F`, the Activity was determined as 50%.
On to `COc1cc2nccc(Oc3ccc(NC(=O)Nc4ccc(F)cc4)c(F)c3)c2cc1OC`, for which the Activity is 1%.
The same measure, in the same setting: with `O=C(Nc1ccc(F)cc1F)Nc1ccc(Oc2cc(Cl)ncn2)cc1F` the figure was 96%.
On the same count and under the same terms, with `COc1cc2nccc(Oc3ccc(N)cc3)c2cc1OC` the figure was 95%; with `COc1cc2nccc(Oc3ccc(NC(=O)Nc4ccccc4)cc3)c2cc1OC`, 4%.
For `COc1ccc(NC(=O)Nc2ccc(F)cc2F)c(F)c1`, the Activity worked out at 100%.
The same measure, in the same setting: with `O=C(Nc1ccc(F)cc1F)Nc1ccc(Oc2cnnc3ccccc23)cc1F` the figure was 100%; with `COc1cc2nccc(Oc3cccc(F)c3)c2cc1OC`, 84%; with `COc1cc2nccc(Oc3ccc(NC(C)=O)c(F)c3)c2cc1OC`, 26%.
As for `COc1cc2nccc(Oc3ccc(NC(=O)Nc4ccccc4)c(F)c3)c2cc1OC`, the Activity was found to be 1%.
Regarding `N#Cc1cnc2ccccc2c1Oc1ccc(NC(=O)Nc2ccc(F)cc2F)c(F)c1`, the Activity is 86%.
With `O=C(Nc1ccc(F)cc1F)Nc1ccc(Oc2ncnc3[nH]ccc23)cc1F`, the Activity is 54%.
On the same count and under the same terms, with `O=C(Nc1ccc(F)cc1F)Nc1ccc(Oc2ccnc3ccccc23)cc1F` the figure was 40%; with `COc1cc2nccc(Oc3ccc(N)c(F)c3)c2cc1OC`, 100%; with `COc1cc2nccc(Oc3ccc(NC(=O)Nc4ccc(F)cc4F)cc3)c2cc1OC`, 6%.
As for `O=C(Nc1ccc(F)cc1F)Nc1ccc(Oc2ccnc(Cl)n2)cc1F`, the Activity turned out to be 98%.
With `COc1cc2ncnc(Oc3ccc(NC(=O)Nc4ccc(F)cc4F)c(F)c3)c2cc1OC`, the Activity was determined as 6%.
For `O=C(Nc1ccc(F)cc1F)Nc1ccc(Oc2ncnc3ccsc23)cc1F`, the Activity was 61%.
For the molecule `COc1ccc2nccc(Oc3ccc(NC(=O)Nc4ccc(F)cc4F)c(F)c3)c2c1`, the Activity came to 24%.
Take `O=C(Nc1ccc(F)cc1F)Nc1ccc(Oc2ccnc3ccsc23)cc1F`: the Activity was found to be 34%.
`COc1ccc2c(Oc3ccc(NC(=O)Nc4ccc(F)cc4F)c(F)c3)ccnc2c1`: the Activity stood at 11%.
The same measure, in the same setting: next, `COc1cc2nccc(Oc3ccc(NC(=O)Nc4ccccc4F)c(F)c3)c2cc1OC`: 1%; `O=C(Nc1ccc(F)cc1F)Nc1ccc(Oc2ccnc3cc(Cl)ccc23)cc1F`: 38%.

In the next assay the test system is Plasmodium falciparum. Description: Antimalarial activity against blood stage Plasmodium falciparum 3D7 assessed as reduction in parasite growth incubated for 72 hrs by SYBR Green dye based fluorescence assay. Format: functional, organism-based.
Settings: not given
For the molecule `COc1cc2nccc(Oc3ccc(NC(=O)Nc4cccc(Br)c4)c(F)c3)c2cc1OC`, the result was inactive.
The same measure, in the same setting: with `COc1cc2nccc(Oc3ccc(NC(=O)Nc4cccc(OC(F)F)c4)c(F)c3)c2cc1OC` the entry was “inactive”; with `COc1cc2nccc(Oc3ccc(NC(=O)Nc4ccc(C(=O)N5CCN(C)CC5)cc4)c(F)c3)c2cc1OC`, “inactive”.
As to `COc1cc2nccc(Oc3ccc(NC(=O)Nc4cc(C(F)(F)F)ccc4F)c(F)c3)c2cc1OC`, the outcome was inactive.
Take `COc1cc2nccc(Oc3ccc(NC(=O)Nc4cccc(C#N)c4)c(F)c3)c2cc1OC`: the result was inactive.
As for `COc1cc2nccc(Oc3ccc(NC(=O)Nc4cccc(CN5CCN(C)CC5)c4)c(F)c3)c2cc1OC`, the result was inactive.
Consider `COc1cc2nccc(Oc3ccc(NC(=O)Nc4cccc(OC(C)C)c4)c(F)c3)c2cc1OC`, for which the result was inactive.
In the case of `COc1cc2nccc(Oc3ccc(NC(=O)Nc4cccc(C(=O)N5CCN(C)CC5)c4)c(F)c3)c2cc1OC`, the outcome was inactive.
Same read-out and setting: with `COc1cc2nccc(Oc3ccc(NC(=O)Nc4ccc(CN5CCOCC5)cc4)c(F)c3)c2cc1OC` the entry was “inactive”; with `COc1cccc(NC(=O)Nc2ccc(Oc3ccnc4cc(OC)c(OC)cc34)cc2F)c1`, “inactive”.
With `COc1cc2nccc(Oc3ccc(NC(=O)Nc4cc(C(=O)N5CCN(C)CC5)cc(C(F)(F)F)c4)c(F)c3)c2cc1OC`, the outcome was inactive.
In the case of `COc1cc2nccc(Oc3ccc(NC(=O)Nc4ccc(C(=O)N5CCN(C)CC5)c(C(F)(F)F)c4)c(F)c3)c2cc1OC`, the outcome was inactive.
On to `COc1cc2nccc(Oc3ccc(NC(=O)Nc4cccc(C(C)C)c4)c(F)c3)c2cc1OC`, for which the outcome was inactive.

The same assay, now with this note: 3D7, 72 h.
Turning to `COc1cc2nccc(Oc3ccc(NC(=O)Nc4ccc(CN5CCCCC5)c(C(F)(F)F)c4)c(F)c3)c2cc1OC`, the EC50 (usually the midpoint of the concentration-response curve) amounted to 490 nM.
With `CCN(CC)Cc1ccc(NC(=O)Nc2ccc(Oc3ccnc4cc(OC)c(OC)cc34)cc2F)cc1OC(F)(F)F`, the EC50 was found to be 270 nM.
As to `COc1cc2nccc(Oc3cc(C(=O)Nc4ccc(CN5CCN(C)CC5)c(C(F)(F)F)c4)ccc3C)c2cc1OC`, the concentration giving a half-maximal response (EC50) worked out at 410 nM.
For `COc1cc2nccc(Oc3ccc(NC(=O)Nc4ccc(CN5CCCC5)c(C(F)(F)F)c4)c(F)c3)c2cc1OC`, the concentration for a half-maximal effect (EC50) worked out at 330 nM.
For `COc1cc2nccc(Oc3ccc(NC(=O)Nc4ccc(C=C5CCNCC5)c(C(F)(F)F)c4)c(F)c3)c2cc1OC`, the EC50 turned out to be 83 nM.
On the same count and under the same terms, next, `COc1cc2nccc(Oc3ccc(NC(=O)Nc4ccc(CN5CCCCC5)c(OC(F)(F)F)c4)c(F)c3)c2cc1OC`: 310 nM; `COc1cc2nccc(Oc3ccc(NC(=O)Nc4ccc(CC5CCNCC5)c(OC(F)(F)F)c4)c(F)c3)c2cc1OC`: 82 nM; `COc1cc2nccc(Oc3ccc(NC(=O)Nc4cccc(Cl)c4)c(F)c3)c2cc1OC`: 2190 nM.
On to `CN1CCN(C(=O)c2cccc(NC(=O)Nc3ccc(N(C)c4ccnc(Nc5ccc(CS(C)(=O)=O)cc5)n4)cc3)c2)CC1`, for which the half-maximal effective concentration (EC50) was 390 nM.
As to `COc1cc2nccc(Oc3ccc(NC(=O)Nc4ccc(C=C5CCNCC5)c(OC(F)(F)F)c4)c(F)c3)c2cc1OC`, the EC50 was 84 nM.
For the molecule `COc1cc2nccc(Oc3ccc(NC(=O)Nc4cc(CN5CCN(C)CC5)cc(C(F)(F)F)c4)c(F)c3)c2cc1OC`, the EC50 is 410 nM.
On the same count and under the same terms, next, `CCN(CC)Cc1ccc(NC(=O)Nc2ccc(Oc3ccnc4cc(OC)c(OC)cc34)cc2F)cc1`: 320 nM.
For the molecule `COc1cc2nccc(Oc3ccc(NC(=O)Nc4ccc(CN5CCCC5)c(OC(F)(F)F)c4)c(F)c3)c2cc1OC`, the EC50 stood at 230 nM.
Still for that read-out and setting: next, `COc1cc2nccc(Oc3ccc(NC(=O)Nc4cccc(C(C)(C)C)c4)c(F)c3)c2cc1OC`: 2520 nM; `COc1cc2nccc(Oc3ccc(NC(=O)Nc4ccc(N(C)C5CCN(C)CC5)cc4)c(F)c3)c2cc1OC`: 330 nM.
Still for that read-out and setting: with `COc1cc2nccc(Oc3ccc(NC(=O)Nc4cccc(OC(F)(F)F)c4)c(F)c3)c2cc1OC` the figure was 800 nM.
Same read-out and setting: next, `COc1cc2nccc(Oc3ccc(NC(=O)Nc4ccc(CN5CCCCC5)cc4)c(F)c3)c2cc1OC`: 250 nM; `COc1cc2nccc(Oc3ccc(NC(=O)Nc4ccc(CN5CCN(C)CC5)cc4)c(F)c3)c2cc1OC`: 580 nM; `CCc1nc(N)nc(N)c1-c1ccc(Cl)cc1` [PYRIMETHAMINE]: 27 nM.
Consider `COc1cc2nccc(Oc3ccc(NC(=O)Nc4ccc(OC5CCN(C)CC5)cc4)c(F)c3)c2cc1OC`, for which the EC50 came to 330 nM.
Consider `COc1cc2nccc(Oc3ccc(NC(=O)Nc4cccc(C(F)(F)F)c4)c(F)c3)c2cc1OC`, for which the 50% effective concentration (EC50) was determined as 540 nM.
As to `C[C@H]1[C@@H](O)O[C@@H]2O[C@@]3(C)CC[C@H]4[C@H](C)CC[C@@H]1[C@@]24OO3` [ARTENIMOL], the EC50 came out at 0.14 nM.
For `COc1cc2nccc(Oc3ccc(NC(=O)Nc4ccc(CN5CCCC5)cc4)c(F)c3)c2cc1OC`, the half-maximal effective concentration (EC50) is 270 nM.
As to `COc1cc2nccc(Oc3ccc(NC(=O)Nc4ccc(N(C)C5CCN(C)CC5)c(C(F)(F)F)c4)c(F)c3)c2cc1OC`, the half-maximal effective concentration (EC50) amounted to 150 nM.
On the same count and under the same terms, next, `COc1cc2nccc(Oc3ccc(NC(=O)Nc4ccc(N(C)C5CCN(C)CC5)c(OC(F)(F)F)c4)c(F)c3)c2cc1OC`: 250 nM; `COc1cc2nccc(Oc3ccc(NC(=O)Nc4ccc(N5CCN(C)CC5)cc4)c(F)c3)c2cc1OC`: 630 nM; `CCN(CC)CCCC(C)Nc1c2ccc(Cl)cc2nc2ccc(OC)cc12` (configuration not stated) [QUINACRINE]: 33 nM.
Take `COc1cc2nccc(Oc3ccc(NC(=O)Nc4cccc(C)c4)c(F)c3)c2cc1OC`: the concentration for a half-maximal effect (EC50) was 3010 nM.
Take `Nc1ncnc2occ(-c3ccc(NC(=O)Nc4cc(C(F)(F)F)ccc4F)cc3)c12` [GW770249X]: the EC50 amounted to 500 nM.
As to `COc1cc2nccc(Oc3ccc(NC(=O)Nc4ccc(OC5CCN(C)CC5)c(OC(F)(F)F)c4)c(F)c3)c2cc1OC`, the EC50 worked out at 75 nM.
As to `COc1cc2nccc(Oc3ccc(NC(=O)Nc4ccc(NC5CCN(C)CC5)cc4)c(F)c3)c2cc1OC`, the EC50 is 660 nM.
For `CCN(CC)Cc1ccc(NC(=O)Nc2ccc(Oc3ccnc4cc(OC)c(OC)cc34)cc2F)cc1C(F)(F)F`, the EC50 was 300 nM.
